Experimental data published in patent US20180099931A1 (AbbVie S.à.r.l., priority 2016, published 2018).
Where two headings read alike, the source gives them in different places.

Target: T1, F508delCFTR (Homo sapiens, UniProt P13569, DEL508-508)
T1 construct: expressed in transfected cells; host or cells: CFBE41o- human lung-derived epithelial cells (CFBE4lo-F508delCFTR-HRP), doxycycline-inducible
Experiment: Cell Surface Expression-Horse Radish Peroxidase (CSE-HRP) Assay;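 on Maximum % activity (with co-corrector): co-corrector and positive control are both the same reference corrector at 2 µM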;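 on Maximum % activity (without co-corrector): percent of the 2 µM on-plate positive control corrector response above DMSO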
Assay type: cell-based
Conditions: for Emax: read-out: Maximum % activity (without co-corrector)

[1] = CSE-HRP, test compound without co-corrector, read-out: EC50 (without co-corrector)
[2] = CSE-HRP, with co-corrector (2 μM of 3-[(2R,4R)-4-({[1-(2,2-difluoro-1,3-benzodioxol-5-yl)cyclopropyl]carbonyl}amino)-7-methoxy-3,4-dihydro-2H-chromen-2-yl]benzoic acid), read-out: EC50 (with co-corrector)
[3] = CSE-HRP, with co-corrector (2 μM), maximum at any tested concentration, normalized to on-plate positive control
[4] = CSE-HRP, without co-corrector, maximum at any tested concentration, normalized to on-plate positive control
[5] = test compound without co-corrector, maximum at any tested concentration, normalized to on-plate positive control
[6] = test compound without co-corrector, read-out: EC50 (without co-corrector)
[7] = with co-corrector (2 μM of 3-[(2R,4R)-4-({[1-(2,2-difluoro-1,3-benzodioxol-5-yl)cyclopropyl]carbonyl}amino)-7-methoxy-3,4-dihydro-2H-chromen-2-yl]benzoic acid), maximum at any tested concentration, normalized to on-plate positive control
[8] = with co-corrector (2 μM of 3-[(2R,4R)-4-({[1-(2,2-difluoro-1,3-benzodioxol-5-yl)cyclopropyl]carbonyl}amino)-7-methoxy-3,4-dihydro-2H-chromen-2-yl]benzoic acid), read-out: EC50 (with co-corrector)
[9] = with co-corrector (2 μM), maximum at any tested concentration, normalized to on-plate positive control
[10] = without co-corrector, maximum at any tested concentration, normalized to on-plate positive control

T1 sequence (P13569 with tags, fused parts or gaps DEL508-508): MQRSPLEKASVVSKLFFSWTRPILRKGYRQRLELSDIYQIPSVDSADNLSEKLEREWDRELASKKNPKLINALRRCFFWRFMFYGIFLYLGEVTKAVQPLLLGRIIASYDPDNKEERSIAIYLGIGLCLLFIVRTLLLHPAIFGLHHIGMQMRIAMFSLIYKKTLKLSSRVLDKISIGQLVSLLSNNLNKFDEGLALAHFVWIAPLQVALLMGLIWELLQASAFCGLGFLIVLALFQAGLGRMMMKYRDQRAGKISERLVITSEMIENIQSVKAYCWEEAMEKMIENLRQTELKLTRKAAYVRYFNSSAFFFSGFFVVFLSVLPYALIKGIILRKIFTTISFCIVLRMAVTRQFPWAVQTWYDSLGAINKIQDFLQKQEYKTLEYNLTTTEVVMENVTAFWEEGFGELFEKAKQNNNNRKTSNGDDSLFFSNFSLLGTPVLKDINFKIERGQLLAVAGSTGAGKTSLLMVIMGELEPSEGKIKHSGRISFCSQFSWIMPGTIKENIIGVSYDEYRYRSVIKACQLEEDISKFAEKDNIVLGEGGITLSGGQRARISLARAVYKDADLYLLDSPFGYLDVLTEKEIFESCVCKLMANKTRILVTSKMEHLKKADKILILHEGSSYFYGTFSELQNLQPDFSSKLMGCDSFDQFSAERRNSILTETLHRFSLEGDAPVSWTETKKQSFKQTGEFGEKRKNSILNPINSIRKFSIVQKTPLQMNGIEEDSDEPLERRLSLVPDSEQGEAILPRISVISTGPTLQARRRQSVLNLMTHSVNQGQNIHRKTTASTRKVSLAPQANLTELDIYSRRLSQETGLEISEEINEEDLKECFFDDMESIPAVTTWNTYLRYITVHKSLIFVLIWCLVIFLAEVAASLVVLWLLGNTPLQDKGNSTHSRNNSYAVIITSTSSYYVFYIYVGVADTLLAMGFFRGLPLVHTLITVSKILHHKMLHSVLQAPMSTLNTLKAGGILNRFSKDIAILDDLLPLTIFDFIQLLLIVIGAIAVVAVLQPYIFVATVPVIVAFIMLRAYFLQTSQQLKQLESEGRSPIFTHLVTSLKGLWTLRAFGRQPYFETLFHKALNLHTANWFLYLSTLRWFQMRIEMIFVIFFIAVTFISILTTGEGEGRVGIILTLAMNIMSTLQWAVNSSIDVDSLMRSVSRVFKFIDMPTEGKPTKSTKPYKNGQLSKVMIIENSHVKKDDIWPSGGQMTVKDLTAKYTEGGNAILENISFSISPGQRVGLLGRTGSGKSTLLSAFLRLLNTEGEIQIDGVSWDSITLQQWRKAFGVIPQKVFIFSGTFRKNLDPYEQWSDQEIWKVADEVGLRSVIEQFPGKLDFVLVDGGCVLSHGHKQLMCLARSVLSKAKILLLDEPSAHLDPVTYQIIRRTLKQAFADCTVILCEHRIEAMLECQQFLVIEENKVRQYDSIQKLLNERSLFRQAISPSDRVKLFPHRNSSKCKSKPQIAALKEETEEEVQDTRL

COc1ccc(C(C)(C)C)cc1CN[C@H]1[C@H](C(C)(C)C)[C@@H](C(=O)O)N(C(=O)C(C)n2cc(Cl)c(C)n2)[C@H]1c1ccccc1 (single isomer, unassigned) [II-237]
EC50 [1]: 1000 to 10000 nM | EC50 [2]: 1000 to 10000 nM | Maximum % activity (with co-corrector) [3]: +++ (≥350) | Maximum % activity (without co-corrector) [4]: + (<100)

COc1ccc(C(C)(C)C)cc1CN[C@H]1[C@H](C(C)(C)C)[C@@H](C(=O)O)N(C(=O)c2cnn(-c3ccc(F)cc3)c2C)[C@H]1c1ccccc1 [II-354]
Emax [5]: > 200% | EC50 [6]: < 1000 nM | Maximum % activity (with co-corrector) [7]: +++ (≥350) | EC50 [8]: < 1000 nM

COc1nc(C(C)(C)C)ccc1CN[C@H]1[C@H](C(C)(C)C)[C@@H](C(=O)O)N(C(=O)[C@H]2CCCCO2)[C@H]1c1cccnc1N(C)C [II-521]
Emax [5]: < 100% | EC50 [6]: 1000 to 10000 nM | Maximum % activity (with co-corrector) [7]: ++ (≥150 and <350) | EC50 [8]: 1000 to 10000 nM

COc1ccc(C(C)(C)C)cc1CN[C@H]1[C@H](C(C)(C)C)[C@@H](C(=O)O)N(C(=O)Oc2ccccc2)[C@H]1c1ccccc1 [Example I-153]
EC50: < 1000 nM | EC50 (EC50 (without co-corrector), test compound without co-corrector): 1000 to 10000 nM | Emax: > 200% | Maximum % activity (with co-corrector) [9]: +++ (≥350)

COc1ccc(C(C)(C)C)cc1CN[C@H]1[C@H](C(C)(C)C)[C@@H](C(=O)O)N(C(=O)c2ccc3cccc(F)c3n2)[C@H]1c1ccccc1 [Example I-93]
EC50 [6]: 1000 to 10000 nM | EC50 [8]: 1000 to 10000 nM | Maximum % activity (with co-corrector) [9]: +++ (≥350) | Emax [10]: 100 to 200%

COc1ccc(C(C)(C)C)cc1CN[C@H]1[C@H](C(C)(C)C)[C@@H](C(=O)O)N(C(=O)[C@@H]2OCC[C@@H]2C)[C@H]1c1ccccc1 (relative stereo) [II-268]
EC50 [1]: 1000 to 10000 nM | EC50 [2]: 1000 to 10000 nM | Maximum % activity (with co-corrector) [3]: +++ (≥350) | Emax [4]: > 200%

COc1ncc(C(F)(F)F)cc1CN[C@H]1[C@H](C(C)(C)C)[C@@H](C(=O)O)N(C(=O)[C@@H]2OCC[C@@H]2Cn2cccn2)[C@H]1c1ccccc1 [III-200]
Emax [5]: < 100% | EC50 [6]: > 10000 nM | EC50 [8]: 1000 to 10000 nM | Maximum % activity (with co-corrector) [9]: ++ (≥150 and <350)

COc1ccc(C(C)(C)C)cc1CN[C@H]1[C@H](C(C)(C)C)[C@@H](C(=O)O)N(C(=O)C2CCCCO2)[C@H]1c1ccccc1 (relative stereo) [Example I-193]
EC50 [6]: 1000 to 10000 nM | EC50 [8]: 1000 to 10000 nM | Maximum % activity (with co-corrector) [9]: +++ (≥350) | Emax [10]: > 200%

COc1ccc(C(C)(C)C)cc1CN[C@H]1[C@H](C(C)(C)OC)[C@@H](C(=O)O)N(C(=O)C2CCCCC2)[C@H]1c1cccnc1N(C)C [Example 41, (2S,3S,4S,5S)-4-{[(5-tert-butyl-2-methoxyphenyl)methyl]amino}-1-(cyclohexanecarbonyl)-5-[2-(dimethylamino)pyridin-3-yl]-3-(2-methoxypropan-2-yl)pyrrolidine-2-carboxylic acid]
EC50 [6]: 1000 to 10000 nM | EC50 [8]: < 1000 nM | Maximum % activity (with co-corrector) [9]: +++ (≥350) | Emax [10]: > 200%

COc1ncc(C2CCC2)cc1CN[C@H]1[C@H](C(C)(C)C)[C@@H](C(=O)O)N(C(=O)C2CCCCC2C)[C@H]1c1ccccc1 (some centres unmarked) [III-208]
Emax [5]: 100 to 200% | EC50 [6]: 1000 to 10000 nM | EC50 [8]: < 1000 nM | Maximum % activity (with co-corrector) [9]: +++ (≥350)

COc1ncc(C(C)(C)C)cc1CN[C@H]1[C@H](C(C)(C)C)[C@@H](C(=O)O)N(C(=O)C2CCCCC2)[C@H]1c1cccnc1OC [Example I-135]
EC50 [6]: 1000 to 10000 nM | EC50 [8]: 1000 to 10000 nM | Maximum % activity (with co-corrector) [9]: +++ (≥350) | Emax [10]: > 200%

COc1ncc(C2CC2)cc1CN[C@H]1[C@H](C(C)(C)C)[C@@H](C(=O)O)N(C(=O)[C@@H]2CCCO2)[C@H]1c1ccccc1C(C)C [Example 101, (2S,3S,4S,5S)-3-tert-butyl-4-{[(5-cyclopropyl-2-methoxypyridin-3-yl)methyl]amino}-1-[(2S)-oxolane-2-carbonyl]-5-[2-(propan-2-yl)phenyl]pyrrolidine-2-carboxylic acid]
EC50 [6]: 1000 to 10000 nM | EC50 [8]: < 1000 nM | Maximum % activity (with co-corrector) [9]: +++ (≥350) | Emax [10]: > 200%

COc1ccc(C(C)(C)C)cc1CN[C@H]1[C@H](C(C)(C)OC)[C@@H](C(=O)O)N(C(=O)OC(C)C)[C@H]1c1ccccc1 [II-419]
Emax [5]: > 200% | EC50 [6]: 1000 to 10000 nM | Maximum % activity (with co-corrector) [7]: +++ (≥350) | EC50 [8]: 1000 to 10000 nM

COc1ccc(C(F)(F)F)cc1CN[C@H]1[C@H](C(C)(C)C)[C@@H](C(=O)O)N(C(=O)C2COc3ccccc3O2)[C@H]1c1ccccc1 (some centres unmarked) [II-156]
EC50 [1]: 1000 to 10000 nM | EC50 [2]: 1000 to 10000 nM | Maximum % activity (with co-corrector) [3]: ++ (≥150 and <350) | Emax [4]: < 100%

CC(C)(C)[C@@H]1[C@@H](NCc2cc(Cl)ccc2OC(F)(F)F)[C@@H](c2ccccc2)N(C(=O)C2CCCCC2)[C@H]1C(=O)O (racemic) [II-75]
EC50 [1]: < 1000 nM | EC50 [2]: 1000 to 10000 nM | Maximum % activity (with co-corrector) [3]: ++ (≥150 and <350) | Emax [4]: < 100%

COc1ccc(C(C)(C)C)cc1CN[C@H]1[C@H](C(C)(C)C)[C@@H](C(=O)O)N(C(=O)CC2C=CCCC2)[C@H]1c1ccccc1 (some centres unmarked) [II-212]
EC50 [1]: 1000 to 10000 nM | EC50 [2]: 1000 to 10000 nM | Maximum % activity (with co-corrector) [3]: +++ (≥350) | Emax [4]: > 200%

COc1ccc(C(C)(C)C)cc1CN[C@H]1[C@H](C(C)(C)C)[C@@H](C(=O)O)N(C(=O)Cc2cc(F)cc(F)c2)[C@H]1c1ccccc1 [II-200]
EC50 [1]: 1000 to 10000 nM | EC50 [2]: < 1000 nM | Maximum % activity (with co-corrector) [3]: +++ (≥350) | Emax [4]: 100 to 200%

Cc1cc(C(F)(F)F)nc(N[C@@H]2[C@@H](C(C)(C)C)[C@H](C(=O)O)N(C(=O)OC(C)C)[C@@H]2c2ccccc2)n1 (racemic) [Example I-13]
EC50 [6]: 1000 to 10000 nM | EC50 [8]: 1000 to 10000 nM | Maximum % activity (with co-corrector) [9]: ++ (≥150 and <350) | Emax [10]: < 100%

CC(C)OC(=O)N1[C@H](C(=O)O)[C@@H](C(C)(C)C)[C@H](NCC2CCCN(c3ccc(C(F)(F)F)cc3)C2)[C@@H]1c1ccccc1 (some centres unmarked) [Example I-268]
EC50 [1]: 1000 to 10000 nM | EC50 [2]: 1000 to 10000 nM | Maximum % activity (with co-corrector) [3]: +++ (≥350) | Emax [4]: < 100%

COc1cc(C(F)(F)F)ccc1CN[C@@H]1[C@@H](C(C)(C)C)[C@H](C(=O)O)N(C(=O)C2CCCOC2)[C@@H]1c1ccccc1N(C)C (mixture of isomers) [II-22]
EC50 [1]: 1000 to 10000 nM | EC50 [2]: 1000 to 10000 nM | Maximum % activity (with co-corrector) [3]: +++ (≥350) | Emax [4]: 100 to 200%

COC(C)(C)[C@@H]1[C@@H](Nc2cc(C(F)(F)F)cc(C)n2)[C@@H](c2ccccc2)N(C(=O)C2CCCCC2)[C@H]1C(=O)O (racemic) [Example 5, rac-(2R,3R,4R,5R)-1-(cyclohexanecarbonyl)-3-(2-methoxypropan-2-yl)-4-{[6-methyl-4-(trifluoromethyl)pyridin-2-yl]amino}-5-phenylpyrrolidine-2-carboxylic acid]
EC50 [6]: 1000 to 10000 nM | EC50 [8]: 1000 to 10000 nM | Maximum % activity (with co-corrector) [9]: +++ (≥350) | Emax [10]: < 100%

COc1ncc(C(F)(F)F)cc1CN[C@H]1[C@H](C23CC(C2)C3)[C@@H](C(=O)O)N(C(=O)OC(C)C)[C@H]1c1ccccc1F [II-544]
Emax [5]: 100 to 200% | EC50 [6]: 1000 to 10000 nM | Maximum % activity (with co-corrector) [7]: +++ (≥350) | EC50 [8]: 1000 to 10000 nM

COc1nc(C(C)(C)C)ccc1CN[C@H]1[C@H](C(C)(C)C)[C@@H](C(=O)O)N(C(=O)[C@@H]2OC[C@@H]3CCC[C@@H]32)[C@H]1c1ccccc1 (relative stereo) [II-431]
Emax [5]: 100 to 200% | EC50 [6]: < 1000 nM | Maximum % activity (with co-corrector) [7]: +++ (≥350) | EC50 [8]: < 1000 nM
